From patent publication EP0726261A1, “Herbidical 1,2,4 thiadiazoles” (American Cyanamid Company, priority 1995, dated 1996)

Key:
Format in all cases: in vivo
Avena fatua [1] = experiment: Herbicidal activity, preemergence test (Example 66); parameters: key: A rating of 0 indicates growth as untreated control; a rating of 9 indicates death; settings: pre; 1000 g/ha; assessed visually twenty days after spraying
Protocol: (§1) To evaluate their herbicidal activity, compounds according to the invention are tested using a representative range of plants: ZEAMX Zea mays ORYSA Oryza sativa GLXMA Glycine max BEAVA Beta vulgaris LIUUT Linum usitatissimum AVEFA Avena fatua ECHCG Echinochloa crus-galli SINAL Sinapsis alba
(§2) The tests fall into two categories, preemergence and postemergence. The preemergence tests involve spraying a liquid formulation of the compound onto the soil in which the seeds of the plant species mentioned above have recently been sown. The postemergence tests involve spraying a liquid formulation of the compound onto seedling plants of the above species.
(§3) The soil used in the tests is a prepared horticultural loam.
(§4) The formulations used in the tests are prepared from solutions of the test compounds in acetone containing 0.4% by weight of an alkylphenol/ethylene oxide condensate available under the trademark TRITON X-155. These acetone solutions are diluted with water and the resulting formulations applied at dosage levels corresponding to 1000 g of active material per hectare in a volume equivalent to 900 litres per hectare.
(§5) In the preemergence tests, untreated sown soil, and in the postemergence tests, untreated soil bearing seedling plants, are used as controls.
(§6) The herbicidal effects of the test compounds are assessed visually twenty days after spraying the foliage and the soil and are recorded on a 0-9 scale. A rating of 0 indicates growth as untreated control, a rating of 9 indicates death. An increase of 1 unit on the linear scale approximates to an 11% increase in the level of effect.

Beta vulgaris [2] = experiment: as above; parameters: key: A rating of 0 indicates growth as untreated control; a rating of 9 indicates death; settings: pre; 1000 g/ha; assessed visually twenty days after spraying
Protocol: as §1, §2, §3, §4, §5, §6

Echinochloa crus-galli [3] = experiment: as above; parameters: key: A rating of 0 indicates growth as untreated control; a rating of 9 indicates death; settings: pre; 1000 g/ha; assessed visually twenty days after spraying
Protocol: as §1, §2, §3, §4, §5, §6

Glycine max [4] = experiment: as above; parameters: key: A rating of 0 indicates growth as untreated control; a rating of 9 indicates death; settings: pre; 1000 g/ha; assessed visually twenty days after spraying
Protocol: as §1, §2, §3, §4, §5, §6

Linum usitatissimum [5] = experiment: as above; parameters: key: A rating of 0 indicates growth as untreated control; a rating of 9 indicates death; settings: pre; 1000 g/ha; assessed visually twenty days after spraying
Protocol: as §1, §2, §3, §4, §5, §6

Oryza sativa [6] = experiment: as above; parameters: key: A rating of 0 indicates growth as untreated control; a rating of 9 indicates death; settings: pre; 1000 g/ha; assessed visually twenty days after spraying
Protocol: as §1, §2, §3, §4, §5, §6

Sinapsis alba [7] = experiment: as above; parameters: key: A rating of 0 indicates growth as untreated control; a rating of 9 indicates death; settings: pre; 1000 g/ha; assessed visually twenty days after spraying
Protocol: as §1, §2, §3, §4, §5, §6

Zea mays [8] = experiment: as above; parameters: key: A rating of 0 indicates growth as untreated control; a rating of 9 indicates death; settings: pre; 1000 g/ha; assessed visually twenty days after spraying
Protocol: as §1, §2, §3, §4, §5, §6

Glycine max [9] = experiment: Herbicidal activity, postemergence test (Example 66); settings: post; 1000 g/ha; assessed visually twenty days after spraying
Protocol: as §1, §2, §3, §4, §5, §6

Avena fatua [10] = experiment: as above; parameters: key: A rating of 0 indicates growth as untreated control; a rating of 9 indicates death; settings: post; 1000 g/ha; assessed visually twenty days after spraying
Protocol: as §1, §2, §3, §4, §5, §6

Beta vulgaris [11] = experiment: as above; parameters: key: A rating of 0 indicates growth as untreated control; a rating of 9 indicates death; settings: post; 1000 g/ha; assessed visually twenty days after spraying
Protocol: as §1, §2, §3, §4, §5, §6

Echinochloa crus-galli [12] = experiment: as above; parameters: key: A rating of 0 indicates growth as untreated control; a rating of 9 indicates death; settings: post; 1000 g/ha; assessed visually twenty days after spraying
Protocol: as §1, §2, §3, §4, §5, §6

Linum usitatissimum [13] = experiment: as above; parameters: key: A rating of 0 indicates growth as untreated control; a rating of 9 indicates death; settings: post; 1000 g/ha; assessed visually twenty days after spraying
Protocol: as §1, §2, §3, §4, §5, §6

Oryza sativa [14] = experiment: as above; parameters: key: A rating of 0 indicates growth as untreated control; a rating of 9 indicates death; settings: post; 1000 g/ha; assessed visually twenty days after spraying
Protocol: as §1, §2, §3, §4, §5, §6

Sinapsis alba [15] = experiment: as above; parameters: key: A rating of 0 indicates growth as untreated control; a rating of 9 indicates death; settings: post; 1000 g/ha; assessed visually twenty days after spraying
Protocol: as §1, §2, §3, §4, §5, §6

Zea mays [16] = experiment: as above; parameters: key: A rating of 0 indicates growth as untreated control; a rating of 9 indicates death; settings: post; 1000 g/ha; assessed visually twenty days after spraying
Protocol: as §1, §2, §3, §4, §5, §6

Triticum aestivum [17] = experiment: Preemergence herbicidal activity (Example 67); parameters: herbicide rating, TRZAW: scale not given here; settings: pre; 800 g/ha; rated about 1-3 weeks after treatment
In short: (§7)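 Test compound was dissolved in acetone containing 0.5% alkylphenol/ethylene oxide condensate, diluted with water and sprayed onto the soil surface of cups at 800g/ha in 400 L/ha (3 bar nozzle). Cups were kept under standard greenhouse conditions and rated about 1-3 weeks after treatment.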

Hordeum vulgare [18] = experiment: Preemergence herbicidal activity (Example 67); parameters: herbicide rating, HORVW: scale not given here; settings: pre; 800 g/ha; rated about 1-3 weeks after treatment
In short: as §7

Alopecurus myosuroides [19] = experiment: Preemergence herbicidal activity (Example 67); parameters: herbicide rating, ALOMY: scale not given here; settings: pre; 800 g/ha; rated about 1-3 weeks after treatment
In short: as §7

Setaria viridis [20] = experiment: Preemergence herbicidal activity (Example 67); parameters: herbicide rating, SETVI: scale not given here; settings: pre; 800 g/ha; rated about 1-3 weeks after treatment
In short: as §7

Abutilon theophrasti [21] = experiment: Preemergence herbicidal activity (Example 67); settings: pre; 800 g/ha; rated about 1-3 weeks after treatment
In short: as §7

Amaranthus retroflexus [22] = experiment: Preemergence herbicidal activity (Example 67); settings: pre; 800 g/ha; rated about 1-3 weeks after treatment
In short: as §7

Chenopodium album [23] = experiment: Preemergence herbicidal activity (Example 67); settings: pre; 800 g/ha; rated about 1-3 weeks after treatment
In short: as §7

Galium aparine [24] = experiment: Preemergence herbicidal activity (Example 67); settings: pre; 800 g/ha; rated about 1-3 weeks after treatment
In short: as §7

Helianthus annuus [25] = experiment: Preemergence herbicidal activity (Example 67); settings: pre; 800 g/ha; rated about 1-3 weeks after treatment
In short: as §7

Ipomoea hederacea [26] = experiment: Preemergence herbicidal activity (Example 67); settings: pre; 800 g/ha; rated about 1-3 weeks after treatment
In short: as §7

Veronica persica [27] = experiment: Preemergence herbicidal activity (Example 67); settings: pre; 800 g/ha; rated about 1-3 weeks after treatment
In short: as §7

Zea mays [28] = experiment: Preemergence herbicidal activity (Example 67); settings: pre; 800 g/ha; rated about 1-3 weeks after treatment
In short: as §7

Abutilon theophrasti [29] = experiment: Postemergence herbicidal activity (Example 67); settings: pos; 800 g/ha; rated after 10-21 days
In short: (§8)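 Seedlings 3-6 weeks old, grown in peat/volcanic clay/bark/polyamide substrate mixed 1:3 with loamy sand, were sprayed postemergence at 800g/ha in 400 L/ha. Compound dissolved in acetone with 0.5% TRITON X-155, diluted in water. Plants kept in greenhouse and rated visually after 10-21 days.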

Alopecurus myosuroides [30] = experiment: Postemergence herbicidal activity (Example 67); settings: pos; 800 g/ha; rated after 10-21 days
In short: as §8

Amaranthus retroflexus [31] = experiment: Postemergence herbicidal activity (Example 67); settings: pos; 800 g/ha; rated after 10-21 days
In short: as §8

Chenopodium album [32] = experiment: Postemergence herbicidal activity (Example 67); settings: pos; 800 g/ha; rated after 10-21 days
In short: as §8

Galium aparine [33] = experiment: Postemergence herbicidal activity (Example 67); settings: pos; 800 g/ha; rated after 10-21 days
In short: as §8

Helianthus annuus [34] = experiment: Postemergence herbicidal activity (Example 67); settings: pos; 800 g/ha; rated after 10-21 days
In short: as §8

Hordeum vulgare [35] = experiment: Postemergence herbicidal activity (Example 67); settings: pos; 800 g/ha; rated after 10-21 days
In short: as §8

Ipomoea hederacea [36] = experiment: Postemergence herbicidal activity (Example 67); settings: pos; 800 g/ha; rated after 10-21 days
In short: as §8

Setaria viridis [37] = experiment: Postemergence herbicidal activity (Example 67); settings: pos; 800 g/ha; rated after 10-21 days
In short: as §8

Triticum aestivum [38] = experiment: Postemergence herbicidal activity (Example 67); settings: pos; 800 g/ha; rated after 10-21 days
In short: as §8

Veronica persica [39] = experiment: Postemergence herbicidal activity (Example 67); settings: pos; 800 g/ha; rated after 10-21 days
In short: as §8

Zea mays [40] = experiment: Postemergence herbicidal activity (Example 67); settings: pos; 800 g/ha; rated after 10-21 days
In short: as §8

Structure (SMILES) | herbicide rating, TRZAW (Triticum aestivum [17]) | herbicide rating, HORVW (Hordeum vulgare [18]) | herbicide rating, ALOMY (Alopecurus myosuroides [19]) | herbicide rating, SETVI (Setaria viridis [20]) | herbicide rating, ABUTH (Abutilon theophrasti [21]) | herbicide rating, AMARE (Amaranthus retroflexus [22]) | herbicide rating, CHEAL (Chenopodium album [23]) | herbicide rating, GALAP (Galium aparine [24]) | herbicide rating, HELAN (Helianthus annuus [25]) | herbicide rating, IPOHE (Ipomoea hederacea [26]) | herbicide rating, VERPE (Veronica persica [27]) | herbicide rating, ZEAMX (Zea mays [28]) | herbicide rating, ABUTH (Abutilon theophrasti [29]) | herbicide rating, ALOMY (Alopecurus myosuroides [30]) | herbicide rating, AMARE (Amaranthus retroflexus [31]) | herbicide rating, CHEAL (Chenopodium album [32]) | herbicide rating, GALAP (Galium aparine [33]) | herbicide rating, HELAN (Helianthus annuus [34]) | herbicide rating, HORVW (Hordeum vulgare [35]) | herbicide rating, IPOHE (Ipomoea hederacea [36]) | also measured
CCNC(=O)c1nc(-c2ccc(F)cc2)ns1 [Example 17] | – | – | – | – | – | – | – | – | – | – | – | – | – | – | – | – | – | – | – | – | herbicidal effects on a 0-9 scale, AVEFA (Avena fatua [1]): 0; herbicidal effects on a 0-9 scale, BEAVA (Beta vulgaris [2]): 0; herbicidal effects on a 0-9 scale, ECHCG (Echinochloa crus-galli [3]): 0; herbicidal effects on a 0-9 scale, GLXMA (Glycine max [4]): 0; herbicidal effects on a 0-9 scale, LIUUT (Linum usitatissimum [5]): 0; herbicidal effects on a 0-9 scale, ORYSA (Oryza sativa [6]): 0; herbicidal effects on a 0-9 scale, SINAL (Sinapsis alba [7]): 0; herbicidal effects on a 0-9 scale, ZEAMX (Zea mays [8]): 0; herbicidal effects on a 0-9 scale, GLXMA (Glycine max [9]): 5; herbicidal effects on a 0-9 scale, AVEFA (Avena fatua [10]): 4; herbicidal effects on a 0-9 scale, BEAVA (Beta vulgaris [11]): 7; herbicidal effects on a 0-9 scale, ECHCG (Echinochloa crus-galli [12]): 2; herbicidal effects on a 0-9 scale, LIUUT (Linum usitatissimum [13]): 2; herbicidal effects on a 0-9 scale, ORYSA (Oryza sativa [14]): 0; herbicidal effects on a 0-9 scale, SINAL (Sinapsis alba [15]): 8; herbicidal effects on a 0-9 scale, ZEAMX (Zea mays [16]): 2
COc1ccc(-c2nsc(C(=O)NCc3cccs3)n2)cc1 [Example 36] | 0 | 0 | 0 | 0 | 0 | 0 | 0 | 0 | 0 | 2 (6-15%) | 0 | 3 (16-29%) | 1 (1-5%) | 3 (16-29%) | 2 (6-15%) | 3 (16-29%) | 2 (6-15%) | 4 (30-44%) | 0 | 3 (16-29%) | herbicide rating, SETVI (Setaria viridis [37]): 7 (80-90%); herbicide rating, TRZAW (Triticum aestivum [38]): 3 (16-29%); herbicide rating, VERPE (Veronica persica [39]): 2 (6-15%); herbicide rating, ZEAMX (Zea mays [40]): 0
CCCCc1nsc(C(=O)NC(C)c2cccs2)n1 (racemic) [Example 25] | 0 | 0 | 0 | 0 | 0 | 0 | 6 (65-79%) | 0 | 0 | 0 | 4 (30-44%) | 0 | 6 (65-79%) | 4 (30-44%) | 3 (16-29%) | 6 (65-79%) | 6 (65-79%) | 7 (80-90%) | 3 (16-29%) | 5 (45-64%) | herbicide rating, SETVI (Setaria viridis [37]): 8 (91-99%); herbicide rating, TRZAW (Triticum aestivum [38]): 2 (6-15%); herbicide rating, VERPE (Veronica persica [39]): 3 (16-29%); herbicide rating, ZEAMX (Zea mays [40]): 0
